Measured values from patent publication US5594144A, “Tropolone derivatives and pharmaceutical composition thereof for preventing and treating ischemic diseases” (The Upjohn Company, priority 1990, dated 1997).

Columns and labels:
[1] = test system: Brain microsomal fractions; assay: in vitro Anti-lipid peroxidation effect (TBAR production, Fe3+-ADP/NADPH); format: biochemical, rat (SD strain, male)
Protocol: 1. in vitro Anti-lipid peroxidation effect
Brain microsomal fractions were prepared from male rats of SD strain, and a portion (0.2 mg protein) was incubated at 37° C. for 15 minutes with a mixture of Fe^3+ (0.1 mM)--ADP (0.5 mM) in the presence or absence of the test compound, in final volume of 1 ml of 10 mM HEPES, 150 mM KCl, 0.2 mM NADPH, pH 7.4. After incubation, 1.5 ml of TCA-TBA-HCl reagent (16.7% trichloroacetic acid, 0.4% thiobarbituric acid, 0.278N hydrochloric acid) was added and the reaction mixture was heated in a boiling water for 15 minutes. After cooling in ice-bath, the reaction mixture was centrifuged, and the absorbance of the supernatant at 535 nm was measured. The amount of thiobarbituric acid reactive substance (TBAR) was obtained by calculation using an extinction coefficient of 1.56×10^5 […]. […] The results are shown in Table 1A for compounds of the formulas IA, IB, and IC, respectively. The compounds with highest inhibition rate have the greatest anti-lipid peroxidation effect.

[2] = test system: pig right coronary artery; assay: in vitro Ca-antagonism (high K+ induced 45Ca-influx); format: cell-based; conditions: Sus scrofa, K+ 75 mM
Protocol: 2. in vitro Ca-antagonism
A strip of pig right coronary artery was depolarized with high K^+ (75 mM) for 30 minutes to induce voltage dependent ^45 Ca-influx. The extracellular ^45 Ca was chelated by adding EGTA and removed by washing, then the strip was lysed at 100° C. ^45 Ca in this lysate was measured as intracellular ^45 Ca by a scintillation counter. The concentration of the test compound was 10^-7, 10^-6, 10^-5 M, and applied until depolarization by K^+ was completed. Ratio of inhibition at various concentrations of the test compounds for increasing the intracellular ^45 Ca by K^+ was determined. The compound with high inhibition ratio has strong Ca-antagonism.

SMILES | Anti-Lipid Peroxidation (% inhibition) 10 μM [1] [%] | Anti-Lipid Peroxidation (% inhibition) 50 μM [1] [%] | inhibition at 10 µM [2] [%]
CC(C)c1ccc(CN2CCN(C(c3ccc(F)cc3)c3ccc(F)cc3)CC2)c(=O)c(NCCCN(C)C)c1 [Compound 2C, 7-[4-(4,4'-difluorobenzhydryl)piperazino-1-methyl]-2-(N-3-dimethylaminopropylamino)-4-isopropyl-2,4,6-cycloheptatrien-1-one] | 29.6 | 90.8 | 63
COc1cc(C(C)C)ccc(C(c2ccccc2)N2CCN(C(c3ccccc3)c3ccc(Cl)cc3)CC2)c1=O (stereo not drawn) [Compound 3A, 7-{1-[4-(4-chlorobenzhydryl)piperazinomethyl]-α-phenyl}-4-isopropyl-2-methoxy-2,4,6-cycloheptatrien-1-one] | 13.8 | 16.3 | 0
CNCCNc1cc(C(C)C)ccc(CN2CCN(C(c3ccc(F)cc3)c3ccc(F)cc3)CC2)c1=O [Compound 3C, 7-[4-(4,4'-difluorobenzhydryl)piperazino-1-methyl]-4-isopropyl-2-(N-2-methylaminoethylamino)-2,4,6-cycloheptatrien-1-one] | 88.0 | 91.6 | 49
COc1cc(C(C)C)ccc(C(C)N2CCN(C(c3ccccc3)c3ccc(Cl)cc3)CC2)c1=O (stereo not drawn) [Compound 4A, 7-{1-[4-(4-chlorobenzhydryl)]piperazinomethyl-α-methyl-}-4-isopropyl-2-methoxy-2,4,6-cycloheptatrien-1-one] | 25.8 | 75.1 | 45
COc1cc(C(C)C)ccc(C2Sc3ccccc3N2Cc2ccccn2)c1=O (stereo not drawn) [Compound 4B, 2-(2'-oxo-3'-methoxy-5'-isopropyl-3',5',7'-cycloheptatrienyl)-3-(2-picolyl)benzothiazoline] | 95.7 | 99.3 | 
CC(C)c1ccc(CN2CCN(C(c3ccc(F)cc3)c3ccc(F)cc3)CC2)c(=O)c(NCCN)c1 [Compound 4C, 2-(N-2-aminoethylamino)-7-[4-(4,4'-difluorobenzhydryl)piperazino-1-methyl]-4-isopropyl-2,4,6-cycloheptatrien-1-one] | 45.2 | 92.9 | 54
CCCCC(c1ccc(C(C)C)cc(OC)c1=O)N1CCN(C(c2ccccc2)c2ccc(Cl)cc2)CC1 (stereo not drawn) [Compound 5A] | 30.5 | 38.7 | 19
COc1cc(C(C)C)ccc(C2Sc3ccccc3N2Cc2cccnc2)c1=O (stereo not drawn) [Compound 5B, 2-(2'-oxo-3'-methoxy-5'-isopropyl-3',5',7'-cycloheptatrienyl)-3-(3-picolyl)benzothiazoline] | 95.9 | 100 | 
CC(C)c1ccc(CN2CCN(C(c3ccc(F)cc3)c3ccc(F)cc3)CC2)c(=O)c(N(C)CCN(C)C)c1 [Compound 5C, 7-[4-(4,4'-difluorobenzhydryl)piperazino-1-methyl]-2-(N-2-dimethylaminoethyl-N-methylamino)-4-isopropyl-2,4,6-cycloheptatrien-1-one] | 32.2 | 90.6 | 94
COc1cc(C(C)C)ccc(CN2CCN(C(c3ccccc3)c3ccccc3)CC2)c1=O [Compound 6A, 7-(4-benzhydrylpiperazino-1-methyl)-4-isopropyl-2-methoxy-2,4,6-cycloheptatrien-1-one] | 15.9 | 63.2 | 100
CCN(CCN(C)C)c1cc(C(C)C)ccc(CN2CCN(C(c3ccc(F)cc3)c3ccc(F)cc3)CC2)c1=O [Compound 6C, 7-[4-(4,4'-difluorobenzhydryl)piperazino-1-methyl]-2-(N-2-dimethylaminoethyl-N-ethylamino)-4-isopropyl-2,4,6-cycloheptatrien-1-one] | 35.9 | 91.5 | 87
COc1cc(C(C)C)ccc(C2Sc3ccccc3N2CCc2ccccn2)c1=O (stereo not drawn) [Compound 7B, 2-(2'-oxo-3'-methoxy-5'-isopropyl-3',5',7'-cycloheptatrienyl)-3-[2-(2-pyridyl)ethyl]benzothiazoline] | 91.9 | 94.3 | 
CCN(CC)CCNc1cc(C(C)C)ccc(CN2CCN(C(c3ccc(F)cc3)c3ccc(F)cc3)CC2)c1=O [Compound 7C, 2-(N-2-diethylaminoethylamino)-7-[4-(4,4'-difluorobenzhydryl)piperazino-1-methyl]-4-isopropyl-2,4,6-cycloheptatrien-1-one] | 21.3 | 90.4 | 67
COc1cc(C(C)C)ccc(CN2CCN(C(c3ccc(C(F)(F)F)cc3)c3ccc(C(F)(F)F)cc3)CC2)c1=O [Compound 8A, 7-{4-[4,4'-di(trifluoromethyl)benzhydryl]piperazino-1-methyl}-4-isopropyl-2-methoxy-2,4,6-cycloheptatrien-1-one] | 32.3 | 51.8 | 27
COc1ccc(CCN2c3ccccc3SC2c2ccc(C(C)C)cc(OC)c2=O)cc1OC (stereo not drawn) [Compound 8B, 2-(2'-oxo-3'-methoxy-5'-isopropyl-3',5',7'-cycloheptatrienyl)-3-[2-(3,4-dimethoxyphenyl)ethyl]benzothiazoline] | 93.4 | 93.8 | 
CC(C)c1ccc(CN2CCN(C(c3ccc(F)cc3)c3ccc(F)cc3)CC2)c(=O)c(NCCNCCN)c1 [Compound 8C, 2-[N-2-(N'-2-aminoethylamino)ethylamino]-7-[4-(4,4'-difluorobenzhydryl)piperazino-1-methyl]-4-isopropyl-2,4,6-cycloheptatrien-1-one] | 33.1 | 92.2 | 60
COc1cc(C(C)C)ccc(CN2CCN(C(c3ccccc3)c3ccc(C(F)(F)F)cc3)CC2)c1=O (stereo not drawn) [Compound 9A, 4-isopropyl-2-methoxy-7-[4-(4-trifluoromethylbenzhydryl)piperazino-1-methyl]-2,4,6-cycloheptatrien-1-one] | 29.2 | 88.1 | 45
COc1cc(C(C)C)ccc(C2Sc3ccccc3N2Cc2ccc3ccccc3n2)c1=O (stereo not drawn) [Compound 9B, 2-(2'-oxo-3'-methoxy-5'-isopropyl-3',5',7'-cycloheptatrienyl)-3-(2-quinolyl)methylbenzothiazoline] | 94.9 | 96.6 | 
COc1cc(C(C)C)ccc(C2Sc3ccccc3N2CCCN2CCN(C(c3ccc(F)cc3)c3ccc(F)cc3)CC2)c1=O (stereo not drawn) [Compound 13B, 2-(2'-oxo-3'-methoxy-5'-isopropyl-3',5',7'-cycloheptatrienyl)-3-{3-[4-(4',4'-difluorobenzhydryl)piperazin-1-yl)propyl}benzothiazoline] | 91.8 | 94.4 | 
CC(C)c1ccc(C2Sc3ccccc3N2CCc2ccccc2)c(=O)c(N2CCNCC2)c1 (stereo not drawn) [Compound 15B, 2-[2'-oxo-3'-(1-piperazinyl)-5'-isopropyl-3',5',7'-cycloheptatrienyl]-3-phenethylbenzothiazoline] | 93.0 | 94.4 | 
CC(C)c1ccc(C2Sc3ccccc3N2CCc2ccccc2)c(=O)c(NCCN(C)C)c1 (stereo not drawn) [Compound 16B] | 91.2 | 95.1 | 
CC(C)c1ccc(CN2CCN(C(c3ccc(F)cc3)c3ccc(F)cc3)CC2)c(=O)c(OCCCN(C)CCc2ccccc2)c1 [Compound 18A, 7-[4-(4,4'-difluorobenzhydryl)piperazino-1-methyl]-2-[3-(N-methyl-N-phenethylamino)propoxy]-4-isopropyl-2,4,6-cycloheptatrien-1-one] | 37.0 | 93.1 | 
